# Key:
# [1] = tested on: Prevotella melaninogenica; experiment: Antibacterial activity against Prevotella melaninogenica by CLSI M11-A6 agar dilution method; type: functional
# [2] = tested on: Prevotella intermedia; experiment: Antibacterial activity against Prevotella intermedia by CLSI M11-A6 agar dilution method; type: functional
# [3] = tested on: Bifidobacterium dentium; experiment: Antibacterial activity against Bifidobacterium dentium by CLSI M11-A6 agar dilution method; type: functional
# [4] = tested on: Bifidobacterium breve; experiment: Antibacterial activity against Bifidobacterium breve by CLSI M11-A6 agar dilution method; type: functional
# [5] = tested on: Bifidobacterium bifidum; experiment: Antibacterial activity against Bifidobacterium bifidum by CLSI M11-A6 agar dilution method; type: functional
# [6] = tested on: Coriobacterium; experiment: Antibacterial activity against […] by CLSI M11-A6 agar dilution method; type: functional
# [7] = tested on: Clostridium sporosphaeroides; experiment: Antibacterial activity against Clostridium sporosphaeroides by CLSI M11-A6 agar dilution method; type: functional; details: Faecalispora sporosphaeroides
# [8] = tested on: Catenibacterium mitsuokai; experiment: Antibacterial activity against Catenibacterium mitsuokai by CLSI M11-A6 agar dilution method; type: functional
# [9] = tested on: Bacteroides ovatus; experiment: Antibacterial activity against Bacteroides ovatus by CLSI M11-A6 agar dilution method; type: functional
# [10] = tested on: Clostridium spiroforme; experiment: Antibacterial activity against Clostridium spiroforme by CLSI M11-A6 agar dilution method; type: functional; details: Thomasclavelia spiroformis
# [11] = tested on: Holdemania filiformis; experiment: Antibacterial activity against Holdemania filiformis by CLSI M11-A6 agar dilution method; type: functional
# [12] = tested on: Paeniclostridium sordellii; experiment: Antibacterial activity against Clostridium sordellii by CLSI M11-A6 agar dilution method; type: functional; details: Paraclostridium sordellii
# [13] = tested on: Prevotella corporis; experiment: Antibacterial activity against Prevotella corporis by CLSI M11-A6 agar dilution method; type: functional
# [14] = tested on: [Clostridium] innocuum; experiment: Antibacterial activity against Clostridium innocuum by CLSI M11-A6 agar dilution method; type: functional
# [15] = tested on: Prevotella oris; experiment: Antibacterial activity against Prevotella oris by CLSI M11-A6 agar dilution method; type: functional; details: Segatella oris
# [16] = tested on: Clostridium celerecrescens; experiment: Antibacterial activity against Clostridium celerecrescens by CLSI M11-A6 agar dilution method; type: functional; details: Lacrimispora celerecrescens
# [17] = tested on: Clostridium butyricum; experiment: Antibacterial activity against Clostridium butyricum by CLSI M11-A6 agar dilution method; type: functional
# [18] = tested on: Prevotella intermedia; experiment: Antibacterial activity against Prevotella P intermedia by CLSI M11-A6 agar dilution method; type: functional
# [19] = tested on: Clostridium bolteae; experiment: Antibacterial activity against Clostridium bolteae by CLSI M11-A6 agar dilution method; type: functional; details: Enterocloster bolteae
# [20] = tested on: Prevotella buccae; experiment: Antibacterial activity against Prevotella buccae by CLSI M11-A6 agar dilution method; type: functional; details: Segatella buccae
# [21] = tested on: Ruminococcus obeum; experiment: Antibacterial activity against Ruminococcus obeum by CLSI M11-A6 agar dilution method; type: functional; details: Blautia obeum
# [22] = tested on: Blautia producta; experiment: Antibacterial activity against Ruminococcus productus by CLSI M11-A6 agar dilution method; type: functional
# [23] = tested on: Hoylesella loescheii; experiment: Antibacterial activity against Prevotella loescheii by CLSI M11-A6 agar dilution method; type: functional
# [24] = tested on: Paraclostridium bifermentans; experiment: Antibacterial activity against Clostridium bifermentans by CLSI M11-A6 agar dilution method; type: functional
# [25] = Antibacterial activity against Bifidobacterium infantis by CLSI M11-A6 agar dilution method; type: functional, Bifidobacterium longum subsp. infantis; details: Bifidobacterium longum
# [26] = tested on: Bacteroides fragilis; experiment: Antibacterial activity against Bacteroides fragilis by CLSI M11-A6 agar dilution method; type: functional
# [27] = tested on: Clostridium disporicum; experiment: Antibacterial activity against Clostridium disporicum by CLSI M11-A6 agar dilution method; type: functional
# [28] = tested on: Anaerococcus tetradius; experiment: Antibacterial activity against Anaerococcus tetradius by CLSI M11-A6 agar dilution method; type: functional
# [29] = tested on: Clostridium; experiment: Antibacterial activity against Clostridium hypermegas by CLSI M11-A6 agar dilution method; type: functional
# [30] = tested on: Peptostreptococcus anaerobius; experiment: Antibacterial activity against Peptostreptococcus anaerobius by CLSI M11-A6 agar dilution method; type: functional
# [31] = tested on: Clostridioides difficile; experiment: Antibacterial activity against Clostridium difficile by CLSI M11-A6 agar dilution method; type: functional
# [32] = tested on: Clostridium sp.; experiment: Antibacterial activity against Clostridium sp. by CLSI M11-A6 agar dilution method; type: functional
# [33] = tested on: Clostridium glycolicum; experiment: Antibacterial activity against Clostridium glycolicum by CLSI M11-A6 agar dilution method; type: functional; details: Terrisporobacter glycolicus
# [34] = tested on: Coprobacillus cateniformis; experiment: Antibacterial activity against Coprobacillus cateniformis by CLSI M11-A6 agar dilution method; type: functional
# [35] = tested on: Blautia luti; experiment: Antibacterial activity against Ruminococcus luti by CLSI M11-A6 agar dilution method; type: functional
# [36] = tested on: Eggerthella lenta; experiment: Antibacterial activity against Eggerthella lenta by CLSI M11-A6 agar dilution method; type: functional
# [37] = tested on: Clostridium leptum; experiment: Antibacterial activity against Clostridium leptum by CLSI M11-A6 agar dilution method; type: functional
# [38] = tested on: Anaerococcus prevotii; experiment: Antibacterial activity against Anaerococcus prevotii by CLSI M11-A6 agar dilution method; type: functional
# [39] = tested on: Ruminococcus flavefaciens; experiment: Antibacterial activity against Ruminococcus flavefaciens by CLSI M11-A6 agar dilution method; type: functional
smiles,measurement,setting,value
CCCCCCCCCCNCCN[C@@]1(C)C[C@H](O[C@H]2[C@H](Oc3c4cc5cc3Oc3ccc(cc3Cl)[C@@H](O)[C@@H](NC(=O)[C@@H](CC(C)C)NC)C(=O)N[C@@H](CC(N)=O)C(=O)N[C@H]5C(=O)N[C@H]3C(=O)N[C@H](C(=O)N[C@H](C(=O)O)c5cc(O)c(CNCP(=O)(O)O)c(O)c5-c5cc3ccc5O)[C@H](O)c3ccc(c(Cl)c3)O4)O[C@H](CO)[C@@H](O)[C@@H]2O)O[C@@H](C)[C@H]1O [TELAVANCIN],MIC50,[1],8 µg/mL
same,MIC90,[1],64 µg/mL
same,MIC50,[2],8 µg/mL
same,MIC90,[2],64 µg/mL
same,MIC50,[3],≤ 0.12 µg/mL
same,MIC90,[3],0.5 µg/mL
same,MIC50,[4],≤ 0.12 µg/mL
same,MIC90,[4],0.5 µg/mL
same,MIC50,[5],≤ 0.12 µg/mL
same,MIC90,[5],0.5 µg/mL
same,MIC50,[6],≤ 0.12 µg/mL
same,MIC90,[6],0.5 µg/mL
same,MIC50,[7],≤ 0.12 µg/mL
same,MIC90,[7],0.25 µg/mL
same,MIC50,[8],≤ 0.12 µg/mL
same,MIC90,[8],0.5 µg/mL
same,MIC,[9],> 64 µg/mL
same,MIC50,[9],> 64 µg/mL
same,MIC90,[9],> 64 µg/mL
same,MIC50,[10],≤ 0.12 µg/mL
same,MIC90,[10],0.25 µg/mL
same,MIC50,[11],≤ 0.12 µg/mL
same,MIC90,[11],0.5 µg/mL
same,MIC50,[12],≤ 0.12 µg/mL
same,MIC90,[12],0.25 µg/mL
same,MIC50,[13],8 µg/mL
same,MIC90,[13],64 µg/mL
same,MIC50,[14],2 µg/mL
same,MIC90,[14],2 µg/mL
same,MIC50,[15],8 µg/mL
same,MIC90,[15],64 µg/mL
same,MIC50,[16],≤ 0.12 µg/mL
same,MIC90,[16],0.25 µg/mL
same,MIC50,[17],≤ 0.12 µg/mL
same,MIC90,[17],0.25 µg/mL
same,MIC50,[18],8 µg/mL
same,MIC90,[18],64 µg/mL
same,MIC50,[19],4 µg/mL
same,MIC90,[19],8 µg/mL
same,MIC50,[20],8 µg/mL
same,MIC90,[20],64 µg/mL
same,MIC,[21],≤ 0.12 µg/mL
same,MIC50,[21],≤ 0.12 µg/mL
same,MIC90,[21],≤ 0.12 µg/mL
same,MIC50,[22],≤ 0.12 µg/mL
same,MIC90,[22],≤ 0.12 µg/mL
same,MIC50,[23],8 µg/mL
same,MIC90,[23],64 µg/mL
same,MIC50,[24],≤ 0.12 µg/mL
same,MIC90,[24],0.25 µg/mL
same,MIC50,[25],≤ 0.12 µg/mL
same,MIC90,[25],0.5 µg/mL
same,MIC,[26],> 64 µg/mL
same,MIC50,[26],> 64 µg/mL
same,MIC90,[26],> 64 µg/mL
same,MIC50,[27],≤ 0.12 µg/mL
same,MIC90,[27],0.25 µg/mL
same,MIC50,[28],≤ 0.12 µg/mL
same,MIC90,[28],0.25 µg/mL
same,MIC50,[29],≤ 0.12 µg/mL
same,MIC90,[29],0.25 µg/mL
same,MIC50,[30],≤ 0.12 µg/mL
same,MIC90,[30],0.25 µg/mL
same,MIC50,[31],0.25 µg/mL
same,MIC90,[31],0.25 µg/mL
same,MIC50,[32],≤ 0.12 µg/mL
same,MIC90,[32],0.25 µg/mL
same,MIC50,[33],≤ 0.12 µg/mL
same,MIC90,[33],0.25 µg/mL
same,MIC50,[34],≤ 0.12 µg/mL
same,MIC90,[34],0.5 µg/mL
same,MIC50,[35],≤ 0.12 µg/mL
same,MIC90,[35],≤ 0.12 µg/mL
same,MIC50,[36],≤ 0.12 µg/mL
same,MIC90,[36],0.5 µg/mL
same,MIC50,[37],≤ 0.12 µg/mL
same,MIC90,[37],0.25 µg/mL
same,MIC50,[38],≤ 0.12 µg/mL
same,MIC90,[38],0.25 µg/mL
same,MIC50,[39],≤ 0.12 µg/mL
same,MIC90,[39],≤ 0.12 µg/mL

# Source: ChEMBL document CHEMBL1671662, “In vitro activities of telavancin and six comparator agents against anaerobic bacterial isolates” (2009)
